Source: patent US7135475B2, “Amide substituted xanthine derivatives” (Hoffmann-La Roche Inc., priority 2002, dated 2006)

Target: T1, recombinant human cytosolic PEPCK (Homo sapiens, UniProt P35558)
T1 sequence (P35558 1-622): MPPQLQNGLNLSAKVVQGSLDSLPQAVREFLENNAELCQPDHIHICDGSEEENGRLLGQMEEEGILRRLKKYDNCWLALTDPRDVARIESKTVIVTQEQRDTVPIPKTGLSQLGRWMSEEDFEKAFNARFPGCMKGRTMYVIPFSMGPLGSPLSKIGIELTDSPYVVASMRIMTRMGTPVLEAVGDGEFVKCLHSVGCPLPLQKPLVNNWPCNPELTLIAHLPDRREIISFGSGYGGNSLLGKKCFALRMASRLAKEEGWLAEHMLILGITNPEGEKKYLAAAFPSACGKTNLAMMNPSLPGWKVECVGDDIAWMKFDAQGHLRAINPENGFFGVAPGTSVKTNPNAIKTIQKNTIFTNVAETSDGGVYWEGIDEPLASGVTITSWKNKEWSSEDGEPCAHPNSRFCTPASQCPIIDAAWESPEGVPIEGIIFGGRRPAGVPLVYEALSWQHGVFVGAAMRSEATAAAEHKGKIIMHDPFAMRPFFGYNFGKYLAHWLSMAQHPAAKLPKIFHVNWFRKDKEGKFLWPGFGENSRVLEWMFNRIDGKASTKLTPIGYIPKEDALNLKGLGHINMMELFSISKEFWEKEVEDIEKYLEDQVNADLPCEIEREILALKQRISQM
Test: PEPCK enzyme assay (coupled pyruvate kinase/lactate dehydrogenase, absorbance at 340)
Format: biochemical
Conditions: recombinant human cytosolic GST-PEPCK; GTP and OAA at 3 fold and 10 fold Km; final DMSO 10%; room temperature, twenty minutes; read-out: In vitro IC50
Procedure: E. coli cells expressing GST-PEPCK were suspended in 5 volumes of lysis buffer (50 mM Tris-hydroxymethyl aminomethyl (TRIS), 150 mM sodium chloride (NaCl), 10 mM ethylene-diametetraacetic acid (EDTA), 5 mM dithiothreitol(DTT), 1% Nonidet P-40, pH 7.4) in the presence of protease inhibitors, incubated with lysozyme at 200 micrograms/ml for 30 min. at room temperature, and sonicated 4×30 seconds at 4 degrees C. After centrifugation at 12,000×g for 20 min. to remove insoluble material, the supernatant was loaded onto glutathione Sepharose (Pharmacia), washed with lysis buffer followed by washing with lysis buffer in the absence of NP-40. GST-PEPCK was eluted with the same buffer containing 20 mM glutathione. The eluted protein was concentrated and dialyzed against 25 mM Hepes(N-[2-hydroxyethyl]piperazine-N′[2-ethanesulfonic acid), 150 mM NaCl, 2.5 mM EDTA, 5 mM DTT, 30% glycerol, pH 7.4, and stored at −20 ° C.
The inhibitory effect of the compounds of the present invention on PEPCK enzymatic activity was determined using recombinant human cytosolic PEPCK, expressed and purified from E.coli as a GST-fusion. Guanosine triphosphate (GTP) and manganese dependent PEPCK enzyme activity catalyzed the decarboxylation of oxalacetate leading to the formation of guanosine diphosphate (GDP) and phosphoenol pyruvate (PEP). This reaction is coupled to pyruvate kinase and lactate dehydrogenase catalyzed reactions and the overall reaction rate determined by measuring the change in absorbance at 340 nm (Chang, H. C. and Lane M. D., J. Biol.Chem. 241:2413–2420, 1966). The following modifications were made to the protocol: 2.5 μg of recombinant, human cytosolic glutathione-S-transferase (GST)-PEPCK was added to a reaction mixture at room temperature which contained 0.3 mM GTP, 0.3 mM oxaloacetate (OAA), 3 mM magnesium chloride (MgCl2), 0.075 mM manganese chloride (MnCl2), 30 mM potassium phosphates (KPO4), pH 7.6, 1 mM dithiothreitol (DTT), 0.2 mM adenosine diphosphate (ADP), 1 mM nicotinamide adenine dinucleotide, reduced form (NADH), 0.9 Units/ml each of pyruvate kinase and lactate dehydrogenase and 1 mg/ml bovine serum albumin (BSA). Test compounds were added such that final concentration of DMSO was 10%. Reactions were run for twenty minutes.
Km values for GTP and OAA were determined according to Michelis-Menton conditions as described in Cornish-Bowden (Fundamentals of Enzyme Kinetics, 1995) in essentially the coupled assay conditions described above. […] Test compounds were added to reactions over a range of concentrations and IC50's were calculated from plots of inhibitor concentration versus enzyme rate. This method of determination of IC50 values is equally applicable to calculations based on PEPCK cellular assay.
The in vitro biological activity of several representative preferred compounds of the present invention in the foregoing PEPCK enzymatic assay is presented in Table 1.

IC50	Compound
280 nM	Cc1nn(C)c(Cl)c1C(=O)N(C)c1ccc(Cc2nc3c([nH]2)c(=O)n(Cc2ccccc2F)c(=O)n3CC2CC2)cc1 [Example 104, 3-Chloro-1,5-dimethyl-1H-pyrazole-4-carboxylic acid {4-[3-cyclopropylmethyl-1-(2-fluorobenzyl)-2,6-dioxo-2,3,6,7-tetrahydro-1H-purin-8-ylmethyl]-phenyl}-methyl-amide]
320 nM	Cc1nc(C)c(C(=O)N(C)c2ccc(Cc3nc4c([nH]3)c(=O)n(Cc3ccccc3F)c(=O)n4CC3CC3)cc2)s1 [Example 105, 2,4-Dimethyl-thiazole-5-carboxylic acid {4-[3-cyclopropylmethyl-1-(2-fluorobenzyl)-2,6-dioxo-2,3,6,7-tetrahydro-1H-purin-8-ylmethyl]-phenyl}-methyl-amide]
370 nM	Cc1nc(N)sc1C(=O)N(C)c1ccc(Cc2nc3c([nH]2)c(=O)n(Cc2ccccc2F)c(=O)n3CC2CC2)cc1 [Example 106, 2-Amino-4-methyl-thiazole-5-carboxylic acid {4-[3-cyclopropylmethyl-1-(2-fluorobenzyl)-2,6-dioxo-2,3,6,7-tetrahydro-1H-purin-8-ylmethyl]-phenyl}-methyl-amide]
500 nM	Cc1nn(C)cc1C(=O)N(C)c1ccc(Cc2nc3c([nH]2)c(=O)n(Cc2ccccc2F)c(=O)n3CC2CC2)cc1 [Example 107, 1,3-Dimethyl-1H-pyrazole-4-carboxylic acid {4-[3-cyclopropylmethyl-1-(2-fluorobenzyl)-2,6-dioxo-2,3,6,7-tetrahydro-1H-purin-8-ylmethyl]-phenyl}-methyl-amide]
550 nM	Cc1nnsc1C(=O)N(C)c1ccc(Cc2nc3c([nH]2)c(=O)n(Cc2ccccc2F)c(=O)n3CC2CC2)cc1 [Example 108, 4-Methyl-[1,2,3]thiadiazole-5-carboxylic acid {4-[3-cyclopropylmethyl-1-(2-fluorobenzyl)-2,6-dioxo-2,3,6,7-tetrahydro-1H-purin-8-ylmethyl]-phenyl}-methyl-amide]
570 nM	Cc1nocc1C(=O)N(C)c1ccc(Cc2nc3c([nH]2)c(=O)n(Cc2ccccc2F)c(=O)n3CC2CC2)cc1 [Example 109, 3-Methyl-isoxazole-4-carboxylic acid {4-[3-cyclopropylmethyl-1-(2-fluorobenzyl)-2,6-dioxo-2,3,6,7-tetrahydro-1H-purin-8-ylmethyl]-phenyl}-methyl-amide]
660 nM	Cc1noc(C)c1C(=O)N(C)c1ccc(Cc2nc3c([nH]2)c(=O)n(Cc2ccccc2F)c(=O)n3CC2CC2)cc1 [Example 110, 3,5-Dimethyl-isoxazole-4-carboxylic acid {4-[3-cyclopropylmethyl-1-(2-fluorobenzyl)-2,6-dioxo-2,3,6,7-tetrahydro-1H-purin-8-ylmethyl]-phenyl}-methyl-amide]
660 nM	CN(C(=O)c1csnn1)c1ccc(Cc2nc3c([nH]2)c(=O)n(Cc2ccccc2F)c(=O)n3CC2CC2)cc1 [Example 111, [1,2,3]Thiadiazole-4-carboxylic acid {4-[3-cyclopropylmethyl-1-(2-fluorobenzyl)-2,6-dioxo-2,3,6,7-tetrahydro-1H-purin-8-ylmethyl]-phenyl}-methyl-amide]
690 nM	CN(C(=O)c1cnn(C)c1)c1ccc(Cc2nc3c([nH]2)c(=O)n(Cc2ccccc2F)c(=O)n3CC2CC2)cc1 [Example 112, 1-Methyl-1H-pyrazole-4-carboxylic acid {4-[3-cyclopropylmethyl-1-(2-fluorobenzyl)-2,6-dioxo-2,3,6,7-tetrahydro-1H-purin-8-ylmethyl]-phenyl}-methyl-amide]
740 nM	CC(=O)Nc1csc(C)c1C(=O)N(C)c1ccc(Cc2nc3c([nH]2)c(=O)n(Cc2ccccc2F)c(=O)n3CC2CC2)cc1 [Example 113, 4-Acetylamino-2-methyl-thiophene-3-carboxylic acid {4-[3-cyclopropylmethyl-1-(2-fluorobenzyl)-2,6-dioxo-2,3,6,7-tetrahydro-1H-purin-8-ylmethyl]-phenyl}-methyl-amide]
740 nM	Cc1oncc1C(=O)N(C)c1ccc(Cc2nc3c([nH]2)c(=O)n(Cc2ccccc2F)c(=O)n3CC2CC2)cc1 [Example 114, 5-Methyl-isoxazole-4-carboxylic acid {4-[3-cyclopropylmethyl-1-(2-fluorobenzyl)-2,6-dioxo-2,3,6,7-tetrahydro-1H-purin-8-ylmethyl]-phenyl}-methyl-amide]
930 nM	CN(C(=O)c1sccc1C(N)=O)c1ccc(Cc2nc3c([nH]2)c(=O)n(Cc2ccccc2F)c(=O)n3CC2CC2)cc1 [Example 115, Thiophene-2,3-dicarboxylic acid 3-amide 2-({4-[3-cyclopropylmethyl-1-(2-fluorobenzyl)-2,6-dioxo-2,3,6,7-tetrahydro-1H-purin-8-ylmethyl]-phenyl}-methyl-amide)]
190 nM	CCN(C(=O)c1c(C)nn(C)c1C)c1ccc(Cc2nc3c([nH]2)c(=O)n(Cc2ccccc2F)c(=O)n3CC2CC2)cc1 [Example 117, 1,3,5-Trimethyl-1H-pyrazole-4-carboxylic acid {4-[3-cyclopropylmethyl-1-(2-fluorobenzyl)-2,6-dioxo-2,3,6,7-tetrahydro-1H-purin-8-ylmethyl]-phenyl}-ethyl-amide]
560 nM	CCCCN(C(=O)c1ccc(C)nc1)c1ccc(Cc2nc3c([nH]2)c(=O)n(Cc2ccccc2F)c(=O)n3CCCC)cc1 [Example 118, N-Butyl-N-{4-[3-butyl-1-(2-fluorobenzyl)-2,6-dioxo-2,3,6,7-tetrahydro-1H-purin-8-ylmethyl]-phenyl}-6-methyl-nicotinamide]
310 nM	Cc1ccc(C(=O)N(c2ccc(Cc3nc4c([nH]3)c(=O)n(Cc3ccccc3F)c(=O)n4CC3CC3)cc2)C(C)C)cn1 [Example 119, N-{4-[3-Cyclopropylmethyl-1-(2-fluorobenzyl)-2,6-dioxo-2,3,6,7-tetrahydro-1H-purin-8-ylmethyl]-phenyl}-N-isopropyl-6-methyl-nicotinamide]
400 nM	CC(C)N(C(=O)Cc1cccnc1)c1ccc(Cc2nc3c([nH]2)c(=O)n(Cc2ccccc2F)c(=O)n3CC2CC2)cc1 [Example 120, N-{4-[3-Cyclopropylmethyl-1-(2-fluorobenzyl)-2,6-dioxo-2,3,6,7-tetrahydro-1H-purin-8-ylmethyl]-phenyl}-N-isopropyl-2-pyridin-3-yl-acetamide]
390 nM	Cc1ccc(C(=O)N(CC2CCC2)c2ccc(Cc3nc4c([nH]3)c(=O)n(Cc3ccccc3F)c(=O)n4CC3CCC3)cc2)cn1 [Example 121, N-Cyclobutylmethyl-N-{4-[3-cyclobutylmethyl-1-(2-fluorobenzyl)-2,6-dioxo-2,3,6,7-tetrahydro-1H-purin-8-ylmethyl]-phenyl}-6-methyl-nicotinamide]

Test system: not given
Test: not given
Conditions: not given

melting point	Compound
208 to 212 °C	CCCCn1c(=O)n(Cc2ccccc2)c(=O)c2[nH]c(Cc3ccc(N4C(=O)CCC4=O)cc3)nc21 [Example 65, 1-Benzyl-3-butyl-8-[4-(2,5-dioxo-pyrrolidin-1-yl)-benzyl]-3,7-dihydro-purine-2,6-dione]
